This note sets out measurements from paper PMC2653189 (PLoS ONE, 2009).

Experiment [1] relates to MCF7. Briefly: Breast cancer cell line apoptosis assay (nucleosome ELISA). The settings on record: Homo sapiens, 24 hr, read-out: EC50 apoptosis induction. In kind it is cell-based. As to the method:
(§1) Human breast carcinoma cell lines MDA-MB-468, MDA-MB-231, MBA-MD-435 and MCF7 were kindly provided by Dr. Powel H. Brown (Breast Cancer Center, Baylor College of Medicine). Breast cancer cell line, MDA-MB-453 was kindly provided by Dr. Shou Jiang (Breast Cancer Center, Baylor College of Medicine). All cell lines were grown in DMEM medium supplemented with 10% fetal bovine serum (FBS), 25,000 units penicillin G, 25,000 µg streptomycin, and 131.4 mg L-Glutamine and cultured in the incubator under the condition of 95% air, 5% CO2 at 37°C [33]. Cells were seeded at 2,500 cells/cm^2 into 12-well plates. At 80% confluency, cells were washed with PBS and supplemented with fresh medium containing compound or the topoisomerase I-inhibitor, camptothecin, at 0, 0.1, 0.3, 1, 3, 10, 30, 100, 300 µM. At 24 hours, treatment was terminated by removing the medium from each well. Cells were lysed with cell lysis buffer (600 µl for 30 minutes at 25°C). Cell lysate (200 µl) was centrifuged at 200 g for 10 minutes and 20 µl of each supernatant was assayed for nucleosomes using the Cell Death Detection ELISA (Roche Applied Science) as described by the manufacturer. The percent maximum nucleosome level was calculated by dividing the nucleosome level by the maximum nucleosome level achieved in the assay and multiplying by 100. This value was plotted as a function of the log compound concentration and the best-fitting curve and EC50 value determined using 4-Parameter Logistic Model/Dose Response/XLfit 4.2, IDBS software.
(§2) Figure 5 Apoptosis induction of breast cancer cell lines by compounds; selective apoptosis of cell lines that are Stat3 dependent. MDA-MB-468 (panel A), MDA-MB-231 (panel B), MDA-MB-435 (panel C), MCF7 (panel D) and MDA-MB-453 (panel E) were seeded in 12-well plates, grown overnight then treated with the indicated compound for 24 hr. Cells were centrifuged and the supernatants assayed for nucleosome levels by ELISA. The percent maximum nucleosome level was calculated (nucleosome level ÷ maximum nucleosome level achieved in the assay ×100) and plotted as a function of the log compound concentration. The best-fitting curve was determined using 4-ParameterLogistic Model/Dose Response One Site/XLfit 4.2, IDBS software and was used to determine the EC50 value (Table 3).

Experiment [2] relates to MDA-MB-435. Described as above. As to conditions: Homo sapiens, 24 hr, read-out: EC50 apoptosis induction. In kind it is cell-based. The method, then: as §1, §2
Experiment [3] has as its system MDA-MB-231. Described as above. Format: cell-based. As to conditions: Homo sapiens, 24 hr, read-out: EC50 apoptosis induction. As to the method: as §1, §2
Experiment [4] relates to MDA-MB-468. Described as above. Format: cell-based. The settings on record: Homo sapiens, 24 hr, read-out: EC50 apoptosis induction. The method, then:
as §1, §2

The subject of experiment [5] is MDA-MB-453. Described as above. Format: cell-based. The settings on record: Homo sapiens, 24 hr, read-out: EC50 apoptosis induction. The method, then:
as §1, §2

Experiment [6] concerns IL-6-mediated Stat3 nuclear translocation (GFP-Stat3α). In words: HTFM nuclear translocation assay in MEF/GFP-Stat3α cells. In kind it is cell-based, murine. As to conditions: Mus musculus, compound 1 hour, then IL-6 200 ng/ml and IL-6sR 250 ng/ml 30 min, read-out: HTFM IC50, inhibition of IL-6-mediated Stat3 nuclear translocation. The method, then: Confocal and high-throughput fluorescence microscopy (HTFM) of MEF/GFP-Stat3α cells were performed as described. Briefly, for confocal fluorescence microscopy, cells were grown in 6-well plates containing a cover slip. For HTFM, cells were seeded into 96-well CC3 plates at a density of 5,000 cells/well using an automated plating system. Cells were cultured under standard conditions until 85–90% confluent. Cells were pre-treated with compound for 1 hour at 37°C then stimulated with IL-6 (200 ng/ml) and IL-6sR (250 ng/ml) for 30 minutes to provide optimal Stat3 activation and nuclear translocation in these cells, as described. Cells were fixed with 4% formaldehyde in PEM Buffer (80 mM Potassium PIPES, pH 6.8, 5 mM EGTA pH 7.0, 2 mM MgCl2) for 30 minutes at 4°C, quenched in 1 mg/ml of NaBH4 (Sigma) in PEM buffer and counterstained for 1 min in 4,6-diamidino-2-phenylindole (DAPI; Sigma; 1 mg/ml) in PEM buffer. Cover slips were examined by confocal fluorescent microscopy. Plates were analyzed by automated HTFM using the Cell Lab IC Image Cytometer (IC100) platform and Cytoshop Version 2.1 analysis software (Beckman Coulter). Nuclear translocation is quantified by using the fraction localized in the nucleus (FLIN) measurement. FLIN values were normalized by subtracting the FLIN for unstimulated cells then dividing this difference by the maximum difference (delta, Δ) in FLIN (FLIN in cells stimulated with IL-6/sIL-6R in the absence of compound minus FLIN of unstimulated cells). This ratio was multiplied by 100 to obtain the percentage of maximum difference in FLIN and was plotted, where indicated, as a function of the log compound concentration. The best-fitting curve and IC50 value were determined using 4-Parameter Logistic Model/Dose Response/XLfit 4.2, IDBS software.
Figure 4 Inhibition of cytoplasmic-to-nuclear translocation of Stat3 assessed by confocal and high-throughput fluorescence microscopy (HTFM). […] Coverslips were examined by confocal fluorescent microscopy using filters to detect GFP (column one), DAPI (column two) or both (merge; column three). In panel B, MEF-GFP-Stat3 cells were grown in 96-well plates with optical glass bottoms and pre-treated with the indicated compound at the indicated concentrations in quadruplicate for 1 hour then stimulated with IL-6 (200 ng/ml) and IL-6sR (250 ng/ml) for 30 minutes. Cells were fixed and the plates were examined by high-throughput microscopy to determine the fluorescence intensity in the nucleus (FLIN). The percent of maximum change (delta, Δ) in FLIN was calculated as described in the Methods and plotted as a function of the log of the compound concentration. […] Best-fit curves were determined using 4-Parameter Logistic Model/Dose Response/XLfit 4.2, IDBS software and were used to calculate the IC50 values (Table 2).

Bounds are passed on as bounds.

Turning to `O=C(O)c1ccc(C=CC(=O)c2ccc3c(c2)OCCO3)cc1` [Cpd3, 4-[3-(2,3-dihydro-1,4-benzodioxin-6-yl)-3-oxo-1-propen-1-yl]benzoic acid], the EC50 (as a rule, the concentration that produces a half-maximal response) in experiment [1] is more than 300 µM; in experiment [2], 16.5 µM; in experiment [3], 26.9 µM; in experiment [4] it was 2.28 µM; in experiment [5], more than 300 µM. In addition, the IC50 (in general, the midpoint of a concentration-inhibition curve) in experiment [6] was found to be 131 µM.
